According to ChEMBL document CHEMBL6096636 (Bioorg Med Chem, 2024):

Legend:
[1] = Cytotoxicity against human HepG2 cells assessed as inhibition of cell growth incubated for 72 hrs by CCK8 assay; type: toxicity, cell-based
[2] = Cytotoxicity against HEK293T cells assessed as inhibition of cell growth incubated for 72 hrs by CCK8 assay; type: toxicity, cell-based, HEK-293T; conditions: human
[3] = Selectivity index, ratio of IC50 for human HepG2 cells to IC50 for erythrocytic stage of Plasmodium falciparum 3D7; type: toxicity, cell-based; conditions: read-out: Ratio IC50
[4] = Selectivity index, ratio of IC50 for HEK293T cells to IC50 for erythrocytic stage of Plasmodium falciparum 3D7; type: toxicity, cell-based; conditions: human, read-out: Ratio IC50
Plasmodium falciparum [5] = assay: microbe, parasite or virus in culture; conditions: 3D7, 72 h
Description: Antimalarial activity against erythrocytic stage of Plasmodium falciparum 3D7 assessed as inhibition of growth incubated for 72 hrs by SYBR green I based assay

Plasmodium falciparum [6] = assay: microbe, parasite or virus in culture; conditions: Dd2, 72 h
Description: Antimalarial activity against erythrocytic stage of chloroquine-resistant Plasmodium falciparum Dd2 assessed as inhibition of growth incubated for 72 hrs by SYBR green I based assay

| SMILES | IC50 at 72 h [1] [nM] | IC50 at 72 h [2] [nM] | selectivity ratio [3] | selectivity ratio [4] | IC50 (Plasmodium falciparum [5]) [nM] | IC50 (Plasmodium falciparum [6]) [nM] |
| --- | --- | --- | --- | --- | --- | --- |
| Cn1cc(CN[C@H]2CC[C@@H](Nc3ncc(C(=O)NO)cn3)CC2)c2ccc(Cl)cc21 | 2500 | 3650 | 146 | 213 | 17.1 | 18 |
| O=C(NO)c1cnc(N[C@H]2CC[C@@H](NCC3CCCC3)CC2)nc1 | 5490 | 5880 | 55 | 59 | 100 | 70.1 |
| Cn1cc(CN[C@H]2CC[C@@H](Nc3ncc(C(=O)NO)cn3)CC2)c2cccnc21 | > 10000 | > 10000 | > 209 | > 209 | 47.9 | 53.9 |
| O=C(NO)c1cnc(N[C@H]2CC[C@@H](NCc3cnc4ccccc4c3)CC2)nc1 | 3340 | 4360 | 123 | 161 | 27.1 | 37.6 |
| Cn1cc(CN[C@H]2CC[C@@H](Nc3ncc(C(=O)NO)cn3)CC2)c2ccc(F)cc21 | 3190 | 6000 | 267 | 501 | 12 | 14.5 |
| Cn1c(CN[C@H]2CC[C@@H](Nc3ncc(C(=O)NO)cn3)CC2)nc2ccccc21 | > 10000 | > 10000 | > 510 | > 510 | 19.6 | 26.4 |
| Cn1cc(CN[C@H]2CC[C@@H](Nc3ncc(C(=O)NO)cn3)CC2)c2ccccc21 | 1770 | 4310 | 163 | 399 | 10.8 | 11.9 |
| Cn1cc(CN[C@H]2CC[C@@H](Nc3ncc(C(=O)NO)cn3)CC2)c2cnccc21 | > 10000 | > 10000 | > 157 | > 157 | 63.8 | 51.3 |
| Cn1nc(CN[C@H]2CC[C@@H](Nc3ncc(C(=O)NO)cn3)CC2)c2ccccc21 | 5790 | 5740 | 212 | 210 | 27.3 | 31.2 |
| O=C(NO)c1cnc(N[C@H]2CC[C@@H](NCc3ccnc4ccccc34)CC2)nc1 | 7120 | > 10000 | 125 | > 176 | 57 | 54 |
| O=C(NO)c1cnc(N[C@H]2CC[C@@H](NCc3ccc4ccccc4c3)CC2)nc1 | 1130 | 1790 | 73 | 116 | 15.4 | 15.4 |
| O=C(NO)c1cnc(N[C@H]2CC[C@@H](NCc3ccsc3)CC2)nc1 | > 10000 | > 10000 | > 76 | > 76 | 132 | 71.2 |
| Cn1cc(CN[C@H]2CC[C@@H](Nc3ncc(C(=O)NO)cn3)CC2)c2ccncc21 | > 10000 | > 10000 | > 192 | > 192 | 52.1 | 49.4 |
| O=C(NO)c1cnc(N[C@H]2CC[C@@H](NCc3cccc4ccncc34)CC2)nc1 | 7080 | 7080 | 163 | 163 | 43.4 | 62.1 |
| O=C(NO)c1cnc(N[C@H]2CC[C@@H](NCc3ccc4cc(F)ccc4n3)CC2)nc1 | 3620 | 2380 | 324 | 213 | 11.2 | 15.8 |
| O=C(NO)c1cnc(N[C@H]2CC[C@@H](NCc3ccccn3)CC2)nc1 | > 10000 | > 10000 | > 72 | > 72 | 138 | 210 |
| O=C(NO)c1cnc(N[C@H]2CC[C@@H](NCc3ccncc3)CC2)nc1 | > 10000 | > 10000 | > 64 | > 64 | 156 | 186 |
| O=C(NO)c1cnc(N[C@H]2CC[C@@H](NCc3c4ccccc4cc4ccccc34)CC2)nc1 | 858 | 1030 | 95 | 114 | 9 | 7.5 |
| O=C(NO)c1cnc(N[C@H]2CC[C@@H](NCc3cccc4cccnc34)CC2)nc1 | > 10000 | > 10000 | > 152 | > 152 | 65.6 | 53.6 |
| O=C(NO)c1cnc(N[C@H]2CC[C@@H](NCc3ccccc3)CC2)nc1 |  | 4620 |  | 44 |  | 54.6 |
| O=C(NO)c1cnc(N[C@H]2CC[C@@H](NCc3ccoc3)CC2)nc1 | > 10000 | > 10000 | > 91 | > 91 | 109 | 106 |
| Cn1cc(CN[C@H]2CC[C@@H](Nc3ncc(C(=O)NO)cn3)CC2)c2ncccc21 | > 10000 | 1250 | > 214 | 27 | 46.7 | 38.3 |
| O=C(NO)c1cnc(N[C@H]2CC[C@@H](NCc3cccnc3)CC2)nc1 | 4580 | 4240 | 40 | 37 | 114 | 56.5 |
| O=C(NO)c1cnc(N[C@H]2CC[C@@H](NCc3ccc4ccccc4n3)CC2)nc1 | 2430 | 2890 | 233 | 278 | 10.4 | 14.3 |
| O=C(NO)c1cnc(N[C@H]2CC[C@@H](NCc3ccc(-c4ccccc4)cc3)CC2)nc1 | 2000 | 2180 | 22 | 24 | 92.1 | 179 |
| O=C(NO)c1cnc(N[C@H]2CC[C@@H](NCc3cc4ccccc4c4ccccc34)CC2)nc1 | 1290 | 2010 | 120 | 187 | 10.7 | 12.3 |
| Cn1cc(CN[C@H]2CC[C@@H](Nc3ncc(C(=O)NO)cn3)CC2)c2ccc(Br)cc21 | 2220 | 4830 | 100 | 217 | 22.2 | 19 |
| O=C(NO)c1cnc(N[C@H]2CC[C@@H](NCC3CCCCC3)CC2)nc1 | 5840 | 3630 | 67 | 41 | 87.6 | 53.4 |
| O=C(NO)c1cnc(N[C@H]2CC[C@@H](NCc3ccc4ncccc4c3)CC2)nc1 | 6380 | 6980 | 143 | 157 | 44.5 | 47.2 |
| O=C(NO)c1cnc(N[C@H]2CC[C@@H](NCc3cccc4ccccc34)CC2)nc1 | 642 | 1530 | 19 | 47 | 34.3 | 39.5 |
